Results published in patent US20120245229A1, “METHOD FOR TREATING NEUROPATHIC PAIN” (priority 2009, published 2012).

How the values were obtained:
[1] = tested on: capsaicin-induced spontaneous pain; assay: Capsaicin-induced acute spontaneous pain; type: in vivo, mice
Procedure: Behavioral analysis. Mice were habituated in the testing environment for two days and performed behavioral testing in a blinded manner. Formalin-evoked spontaneous inflammatory pain was assessed by measuring duration (seconds) animals spent on licking/flinching the affected paws every 5 min for 45 min. Capsaicin-induced spontaneous pain was aslo assessed for 10 min. For testing mechanical sensitivity, mice were put in boxes on an elevated metal mesh floor and stimulated hindpaw with a series of von Frey hairs with logarithmically incrementing stiffness (0.02-2.56 grams, Stoelting), presented perpendicular to the plantar surface. It was determined the 50% paw withdrawal threshold using Dixon's up-down method^40. For testing heat sensitivity, mice were placed in plastic boxes and tested heat sensitivity using Hargreaves radiant heat apparatus (IITC Life Science Inc.). The basal paw withdrawal latency was adjusted to 9-12 seconds and set a cut-off of 20 seconds to prevent tissue damage. […] BL1, baseline latency before inflammation; BL2, baseline latency after inflammation but before drug injection; PL, latency post drug injection. Intrathecal injection: […] To examine whether pretreatment of RvE1 attenuates capsaicin-induced acute spontaneous pain, RvE1 and capsaicin were mixed and injected at the same time (FIG. 3f). […]

[2] = tested on: phosphorylation of ERK (pERK); assay: ERK phosphorylation (pERK) in cultured DRG neurons; type: cell-based, mice; details: dissociated DRG neurons; RvE1 10 ng/ml; TNF-α 10 ng/ml; capsaicin 500 nM
Procedure: Primary DRG culture. DRGs were aseptically removed from 4-week old mice and digested them first with collagenase (1.25 mg/ml)/dispase-II (2.4 units/ml) at 37° C. for 90 min then with 0.25% trypsin for 8 min at 37° C. DRG cells were mechanically dissociated with a flame polished Pasteur pipette in the presence of 0.05% DNAse I and plated these cells onto poly-D-lysine and laminin-coated slide chambers. DRG cells were grown in a neurobasal defined medium (with 2% B27 supplement, Invitrogen) in the presence of NGF (50 ng/ml) for 24 h and replaced the medium with NGF-free medium before stimulation. For immunocytochemistry, DRG cells were fixed with 4% paraformaldehyde for 30 min and incubated the cells with pERK primary antibody (rabbit, Cell signaling, 1:500) overnight.
Resolvins were also used for intraplantar injection. RvD1 or RvE1 was injected into the plantar surface of a hindapaw [20 ng, 20 μl , in 1% ethanol (Supplementary FIG. 5a, 5b) or in 10% ethanol (FIG. 2e, Supplementary FIG. 1d)]. […]
pERK immunocytochemistry in DRG neurons: DRG cells grown in slide chambers were fixed with 4% paraformaldehyde for 30 min and incubated with pERK primary antibody (Rabbit, Cell Signaling, 1:500) at 4° C. overnight. The stained cells were examined with a Nikon fluorescence microscope, and images in 3 randomly-selected optic fields from each chamber were captured with a CCD Spot camera. […]

[3] = tested on: complete Freund's adjuvant (CFA)-evoked heat hyperalgesia; assay: CFA-evoked heat hyperalgesia (paw withdrawal latency, Hargreaves); type: in vivo, mice; details: for reduction of heat hyperalgesia: 10 ng i.t., post-CFA day 3, 1 h after injection
Procedure: Animals and pain models. Adult CD1 mice (male, 25-32 g) were used for most experiments. Knockout mice were used lacking TNFR1/II (Tnfrsf1a/1b^−/−) and TRPV1 (Trpv1^−/−) and C57BL/6 wild-type control mice, all from Jackson, for some experiments. All animal procedures performed in this study were approved by the Harvard Medical Area Standing Committee on Animals. 20 μl of diluted formalin (5%), carrageenan (CRG, 1%), or complete Freund's adjuvant (CFA) were injected into the plantar surface of a hindpaw to produce acute, persistent, or chronic inflammatory pain, respectively. Postoperative pain was also produced through hindpaw incision^36 and neuropathic pain by ligation of the spinal nerve^37.
Reagents and administration. RvE1 and RvD1 were suspended in 1% or 10% ethanol as vehicle for investigating acute (<1 h) and persistent (1-6 h) effects of resolvins on inflammatory pain. The reagents (10 μl) were delivered to the cerebral spinal fluid via intrathecal injection made by a spinal cord puncture between the L5 and L6 level with a 30G needle^38.
Behavioral analysis. Mice were habituated in the testing environment for two days and performed behavioral testing in a blinded manner. Formalin-evoked spontaneous inflammatory pain was assessed by measuring duration (seconds) animals spent on licking/flinching the affected paws every 5 min for 45 min. Capsaicin-induced spontaneous pain was aslo assessed for 10 min. For testing mechanical sensitivity, mice were put in boxes on an elevated metal mesh floor and stimulated hindpaw with a series of von Frey hairs with logarithmically incrementing stiffness (0.02-2.56 grams, Stoelting), presented perpendicular to the plantar surface. It was determined the 50% paw withdrawal threshold using Dixon's up-down method^40. For testing heat sensitivity, mice were placed in plastic boxes and tested heat sensitivity using Hargreaves radiant heat apparatus (IITC Life Science Inc.). The basal paw withdrawal latency was adjusted to 9-12 seconds and set a cut-off of 20 seconds to prevent tissue damage. The percent maximal possible antinociceptive effect (% M.P.E) was calculated using the equation % M.P.E.=[(PL−BL2)/(BL1−BL2)]×100. BL1, baseline latency before inflammation; BL2, baseline latency after inflammation but before drug injection; PL, latency post drug injection.
Intrathecal injection. To avoid systemic effects of drugs and target spinal mechanisms, drugs were delivered into cerebral spinal fluid (CSF) space around lumbosacral spinal cord via intrathecal (i.t.) administration. Spinal cord puncture was made with a 30G needle between the L5 and L6 level to deliver the reagents (10 μl) to the cerebral spinal fluid (Hylden and Wilcox, 1980)^5. […] In addition to spinal cord cells, intrathecal drug administration also affects DRG cells^6,7.
The anti-hyperalgesic efficacy of RvE1 prepared in 1% and 10% ethanol was compared on post-CFA day 3.

CC[C@@H](O)/C=C/C=C\C[C@@H](O)/C=C/C=C/C=C\[C@@H](O)CCCC(=O)O [RvE1, 5S,12R,18R-trihydroxyeicosapentaenoic acid]
intrathecal capsaicin-evoked acute spontaneous pain ([1]; intrathecal RvE1 mixed with capsaicin 0.5 μg): prevented | intraplantar capsaicin-induced acute pain ([1]; peripheral (intraplantar) RvE1 10 min before capsaicin 5 μg): reduced | TNF-α- and capsaicin-elicited increases in phosphorylation of ERK (pERK) [2]: abolished | reduction of heat hyperalgesia ([3]; vehicle 1% ethanol): 54.7% | reduction of heat hyperalgesia ([3]; vehicle 10% ethanol): 55.7% | reduction in hyperalgesia ([3]; 10 ng intrathecal, post-CFA day 3, 15 min after administration): ~75% | potency of 10 ng RvE1 compared with 10 μg NS-398 ([3]; intrathecal, CFA heat hyperalgesia, 1-6 h): more potent than 10 μg COX-2 inhibitor NS-398
